This test concerns SK-N-MM (SKNMM-MYCN, doxycycline-inducible MYCN). Put plainly: area under dose-response curve (CellTiter-Glo viability normalised to plate controls) (AUC (arbitrary units)); higher = more loss of viability; extreme values may be limits of the assay. The gist of the method: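 SK-N-MM cells carrying doxycycline-inducible MYCN were seeded in 96-well plates at 1250 cells/100 μL, and about 24 h later they received medium with or without doxycycline. Two days after that, 10-point 1:3 dilution series of compounds were added by pin transfer (890-fold dilution of stock), with a second dose on day 4. CellTiter-Glo luminescence was measured 3 or 8 days after drugging. Log2 signals were scaled against the positive and negative controls on each plate and used to calculate the area under the dose-response curve.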

Setting [1] is: MYCN induction (doxycycline): +doxycycline (MYCN induced), time after drugging: 3 days.
Where [2] appears, read: MYCN induction (doxycycline): +doxycycline (MYCN induced), time after drugging: 8 days.
[3] abbreviates: MYCN induction (doxycycline): no doxycycline (MYCN not induced), time after drugging: 3 days.
The mark [4] stands for this setting: MYCN induction (doxycycline): no doxycycline (MYCN not induced), time after drugging: 8 days.

This note sets out measurements from the supplement of paper PMC7021759.

± gives the standard deviation of the averaged measurements.

Take `COc1c(C)c2c(c(O)c1C/C=C(\C)CCC(=O)OCCN1CCOCC1)C(=O)OC2` [MYCOPHENOLATE MOFETIL]: the “area under dose-response curve” value is, setting by setting: under setting [1], 43.8; under setting [2], 115; under setting [3], 25.9; under setting [4], 51.4.
For the molecule `CC1=C(/C=C/C(C)=C/C=C/C(C)=C/C(=O)O)C(C)(C)CCC1` [TRETINON], the “area under dose-response curve” value is 0.434 under setting [2], 1.4 under setting [3] and 0 under setting [4].
Consider `COc1cc(NCc2ccc3nc(N)nc(N)c3c2C)cc(OC)c1OC` [TRIMETREXATE], for which the “area under dose-response curve” value amounted to 27.5 under setting [1], 140 under setting [2], 18.8 under setting [3] and 47.1 under setting [4].
Consider `C[C@H]1[C@@H](O)O[C@@H]2O[C@@]3(C)CC[C@H]4[C@H](C)CC[C@@H]1[C@@]24OO3` [DIHYDROARTEMISININ], for which the “area under dose-response curve” value worked out at 62.1 under setting [1], 116 under setting [2], 37 under setting [3] and 73.1 under setting [4].
In the same order, the values of `Cc1ncc(CNC(=O)N(CCCl)N=O)c(N)n1` [NIMUSTINE] are 0, 0, 0 and 0.
Taken in the same sequence, the figures for `CC(=O)Nc1cccc(-n2c(=O)n(C3CC3)c(=O)c3c(Nc4ccc(I)cc4F)n(C)c(=O)c(C)c32)c1` [TRAMETINIB] were 54.2, 206, 42.4 and 152.
Turning to `O=C(/C=C\n1cnc(-c2cc(C(F)(F)F)cc(C(F)(F)F)c2)n1)NNc1cnccn1` [SELINEXOR], the “area under dose-response curve” value was 98.9 under setting [1], 189 under setting [2], 43.6 under setting [3] and 128 under setting [4].
In the same order, the values of `CO[C@@]12[C@H](COC(N)=O)C3=C(C(=O)C(C)=C(N)C3=O)N1C[C@@H]1N[C@@H]12` [MITOMYCIN C] are 11.1, 100, 4.39 and 78.3.
For the molecule `S=c1[nH]cnc2nc[nH]c12` [MERCAPTOPURINE], the “area under dose-response curve” value was determined as 8.11 under setting [1], 21.7 under setting [2], 12.1 under setting [3] and 13.1 under setting [4].
Regarding `CC(C)C[C@H](NC(=O)[C@H](Cc1ccccc1)NC(=O)c1cnccn1)B(O)O` [BORTEZOMIB], the “area under dose-response curve” value under setting [1] came to 264, the “area under dose-response curve” value under setting [2] came out at 382, the “area under dose-response curve” value under setting [3] worked out at 245 and the “area under dose-response curve” value under setting [4] was 374.
With `CC[C@@]1(O)C(=O)OCc2c1cc1n(c2=O)Cc2cc3c(CN(C)C)c(O)ccc3nc2-1` [TOPOTECAN], the “area under dose-response curve” value was 139 under setting [1], 216 under setting [2], 68.5 under setting [3] and 105 under setting [4].
On to `CC1=C(CC(=O)O)c2cc(F)ccc2/C1=C\c1ccc([S+](C)[O-])cc1` (stereo not drawn) [SULINDAC], for which the “area under dose-response curve” value runs as follows: under setting [2], 0; under setting [3], 0; under setting [4], 0.
As to `C#Cc1cccc(Nc2ncnc3cc(OCCOC)c(OCCOC)cc23)c1` [ERLOTINIB], the “area under dose-response curve” value by setting is: under setting [2], 1.15; under setting [3], 18.8.
Take `C/C=C1\NC(=O)[C@H]2CSSCC/C=C/[C@H](CC(=O)N[C@H](C(C)C)C(=O)N2)OC(=O)[C@H](C(C)C)NC1=O` [ROMIDEPSIN]: the “area under dose-response curve” value under setting [1] was 231, the “area under dose-response curve” value under setting [2] was 416, the “area under dose-response curve” value under setting [3] was 165 and the “area under dose-response curve” value under setting [4] turned out to be 398.
Regarding `C=C(c1ccc(C(=O)O)cc1)c1cc2c(cc1C)C(C)(C)CCC2(C)C` [BEXAROTENE], the “area under dose-response curve” value is, setting by setting: under setting [1], 4.22 ± 5.2; under setting [3], 11.9; under setting [4], 0.
On to `CN(C)CCCNc1c2ccccc2nc2c1[nH]c1ccccc12` [SYUIQ-5], for which the “area under dose-response curve” value under setting [1] is 219, the “area under dose-response curve” value under setting [2] turned out to be 262, the “area under dose-response curve” value under setting [3] was 196 and the “area under dose-response curve” value under setting [4] is 225.
Taken in the same sequence, the figures for `CO[C@H]1C[C@@H]2CC[C@@H](C)[C@@](O)(O2)C(=O)C(=O)N2CCCC[C@H]2C(=O)O[C@H]([C@H](C)C[C@@H]2CC[C@@H](O)[C@H](OC)C2)CC(=O)[C@H](C)/C=C(\C)[C@@H](O)[C@@H](OC)C(=O)[C@H](C)C[C@H](C)/C=C/C=C/C=C/1C` [SIROLIMUS] were 18.2, 7.23, 41.5 and 24.7.
In the same order, the values of `O=C(NOC[C@H](O)CO)c1ccc(F)c(F)c1Nc1ccc(I)cc1F` are 28.9, 92.1, 21.5 and 84.4.
As for `Clc1ccc(C(c2ccccc2Cl)C(Cl)Cl)cc1` (stereo not drawn) [MITOTANE], the “area under dose-response curve” value runs as follows: under setting [1], 0; under setting [2], 0; under setting [3], 0; under setting [4], 0.
As to `CC(C)n1nc(-c2ccc3oc(N)nc3c2)c2c(N)ncnc21` [INK-128], the “area under dose-response curve” value runs as follows: under setting [1], 36.2; under setting [2], 38.7; under setting [3], 29.5; under setting [4], 59.3.
On to `COc1cc2c(Oc3ccc(NC(=O)C4(C(=O)Nc5ccc(F)cc5)CC4)cc3F)ccnc2cc1OCCCN1CCOCC1` [FORETINIB], for which the “area under dose-response curve” value by setting is: under setting [1], 167; under setting [2], 170; under setting [3], 144; under setting [4], 140.
Taken in the same sequence, the figures for `Cc1cc(Nc2ncc(Cl)c(Nc3ccccc3S(=O)(=O)C(C)C)n2)c(OC(C)C)cc1C1CCNCC1` [CERITINIB] were 175, 168, 172 and 170.
Taken in the same sequence, the figures for `OCCN1CCN(CCCN2c3ccccc3Sc3ccc(C(F)(F)F)cc32)CC1` [FLUFENAZINE] were 0, 0, 0 and 0.
In the same order, the values of `O=C(Nc1c[nH]nc1-c1nc2ccc(CN3CCOCC3)cc2[nH]1)NC1CC1` [AT9283] are 91, 206, 42.9 and 145.
For the molecule `CC1(C)CCC(c2ccc(Cl)cc2)=C(CN2CCN(c3ccc(C(=O)NS(=O)(=O)c4ccc(N[C@H](CCN5CCOCC5)CSc5ccccc5)c(S(=O)(=O)C(F)(F)F)c4)cc3)CC2)C1` [NAVITOCLAX], the “area under dose-response curve” value is, setting by setting: under setting [1], 8.7; under setting [2], 3.92; under setting [3], 0; under setting [4], 0.362.
Taken in the same sequence, the figures for `CNC(=O)c1cc(Oc2ccc(NC(=O)Nc3ccc(Cl)c(C(F)(F)F)c3)c(F)c2)ccn1` [REGORAFENIB] were 30.6, 47.7, 18.8 and 61.4.
In the same order, the values of `CC(C)C[C@H](NC(=O)[C@H](CCc1ccccc1)NC(=O)CN1CCOCC1)C(=O)N[C@@H](Cc1ccccc1)C(=O)N[C@@H](CC(C)C)C(=O)[C@@]1(C)CO1` [CARFILZOMIB] are 295, 404, 286 and 398.
Taken in the same sequence, the figures for `Cc1[nH]c2ccccc2c1CCNCc1ccc(/C=C/C(=O)NO)cc1` [PANOBINOSTAT] were 171 ± 12, 306 ± 5.3, 114 ± 27 and 287 ± 4.4.
With `CCOc1cc2ncc(C#N)c(Nc3ccc(OCc4ccccn4)c(Cl)c3)c2cc1NC(=O)/C=C/CN(C)C` [NERATINIB], the “area under dose-response curve” value by setting is: under setting [1], 106; under setting [2], 154; under setting [3], 98.3; under setting [4], 151.
Taken in the same sequence, the figures for `Nc1nc(=O)n([C@H]2C[C@H](O)[C@@H](CO)O2)cc1F` [5-FLUORODEOXYCYTIDINE] were 23.7, 184, 9.38 and 58.5.
In the case of `CN[C@@H]1C[C@H]2O[C@@](C)([C@@H]1OC)n1c3ccccc3c3c4c(c5c6ccccc6n2c5c31)C(=O)N[C@H]4O` [7-HYDROXYSTAUROSPORINE], the “area under dose-response curve” value under setting [1] amounted to 204, the “area under dose-response curve” value under setting [2] was found to be 290, the “area under dose-response curve” value under setting [3] amounted to 144 and the “area under dose-response curve” value under setting [4] stood at 249.
For `COc1cc2nccc(Oc3ccc(NC(=O)C4(C(=O)Nc5ccc(F)cc5)CC4)cc3)c2cc1OC` [CABOZANTINIB], the “area under dose-response curve” value under setting [1] was 0, the “area under dose-response curve” value under setting [2] is 0, the “area under dose-response curve” value under setting [3] is 0 and the “area under dose-response curve” value under setting [4] stood at 0.
